PubChem BioAssay AID1421 (Emory University Molecular Libraries Screening Center, 2008)
Activity calls are given as the source filed them. No rule for the calls is given here.

Target: Prostaglandin E2 receptor EP2 subtype (Homo sapiens) (UniProt P43116)
Assay: EP2 receptor modulators, dose response, cell-based, human EP2, PGE2 EC50 shift (AID 1421)
Conditions: EP2-expressing cells, PGE2 EC50 shift by compound

Prostaglandin E2 receptor EP2 subtype (Homo sapiens), sequence (P43116 whole entry, looked up): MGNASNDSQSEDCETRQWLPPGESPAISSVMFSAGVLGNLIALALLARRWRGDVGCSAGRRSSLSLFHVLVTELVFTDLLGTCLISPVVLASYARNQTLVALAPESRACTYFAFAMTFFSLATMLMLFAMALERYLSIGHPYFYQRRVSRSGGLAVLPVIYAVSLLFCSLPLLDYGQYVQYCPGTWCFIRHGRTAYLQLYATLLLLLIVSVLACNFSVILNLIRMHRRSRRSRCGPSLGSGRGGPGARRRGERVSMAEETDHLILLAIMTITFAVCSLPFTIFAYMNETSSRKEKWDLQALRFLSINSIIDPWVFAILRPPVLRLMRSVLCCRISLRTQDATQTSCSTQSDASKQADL

Row | SMILES | outcome
1 | NC(=O)CSc1nc(-c2ccccc2)c(-c2ccccc2)o1 | active
2 | COc1ccc(-c2nc(NC(C)=O)sc2-c2ccccc2)cc1 | active
3 | CCc1nc(N2CCCCC2)c2oc3ccccc3c2n1 | active
4 | O=C(O)COc1ccc(/C=C/c2ccc3cccc([N+](=O)[O-])c3n2)cc1 | active
5 | O=C(N/N=C/c1cccc(F)c1)NC1CCCCC1 | active
6 | Cc1ccc(C(=O)Nc2ccccc2C(=O)NCc2ccccc2)cc1 | active
7 | CCOC(=O)c1cnc(SC)nc1Sc1ccccc1Cl | active
8 | CN1CCCN(C(=O)Cc2c(Cl)cccc2Cl)c2nc3ccccc3nc21 | active

Same assay, conditions: EP2-expressing cells, PGE2 EC50 shift by compound; measured here: PGE2 EC50 at 6.7 uM compound

Row | SMILES | PGE2 EC50 with compound
9 | Cc1cc(C(=O)NCC(c2ccco2)N(C)C)no1 (stereo not drawn) | 2.55 nM
10 | Cc1ccc(S(=O)(=O)NCC(=O)N(c2ccccc2)C(C(=O)NCc2ccccc2)c2ccco2)cc1 (stereo not drawn) | 1 nM
11 | CCCCOc1cc(C)nc(NCc2ccccc2)n1 | 1.47 nM
12 | CCSC1=N/C(=C\c2ccccc2)C(=O)N1c1ccc(OC)cc1 | 0.75 nM
13 | C=CCN1C(=O)/C(=C/c2ccc(O)c(OC)c2)S/C1=N/c1nccs1 | 1.27 nM
14 | CCOC(=O)C1=NN(c2ccc(C)cc2)C2(S1)SC(C(C)=O)=C(C)N2c1ccccc1 (stereo not drawn) | 0.31 nM
15 | CCOP(=O)(OCC)c1nc(-c2ccc(F)cc2)oc1NCc1ccccc1 | 1.09 nM
16 | CNc1oc(-c2ccc(Cl)cc2)nc1P(=O)(c1ccccc1)c1ccccc1 | 0.76 nM
17 | Cc1ccc(Nc2cc(C)nc3c(C)ccc([N+](=O)[O-])c23)cc1 | 0.73 nM
18 | CCOc1nc2cccc(C(=O)OC(C)OC(=O)OC3CCCCC3)c2n1Cc1ccc(-c2ccccc2-c2nn[nH]n2)cc1 (stereo not drawn) | 1.42 nM
19 | CSc1ncnc2sc(C)c(C)c12 | 1.22 nM
20 | C=CCN1C(=O)N(/C=C/C)c2cccc3cccc1c23 | 2.79 nM
21 | Cc1ccc(C(=O)C2=C(O)C(=O)N(CCCn3ccnc3)C2c2ccc(OC(C)C)cc2)o1 (stereo not drawn) | 1.01 nM
22 | CN(C)c1oc(-c2ccccc2Cl)nc1P(=O)(c1ccccc1)c1ccccc1 | 1.17 nM
23 | Cc1ccccc1OCc1nc2ccccc2c(=O)n1/N=C/c1ccco1 | 1.02 nM
24 | CC1(C)Cc2ccccc2-c2nc3n(c(=O)c21)CCS3 | 0.79 nM
25 | Cc1ccc(NP(=O)(Oc2ccccc2F)Oc2ccccc2F)cc1C | 1.35 nM
26 | O=C(Nc1ccccc1Br)c1ccccc1-c1ccccc1 | 2.5 nM
27 | O=C1COc2ccccc2N1Cc1ccccc1Cl | 1.38 nM
28 | CSc1nc(Sc2ccccc2Cl)c2ccccc2n1 | 0.7 nM
29 | CCCn1c(SCC(=O)Nc2sc(C)c(C)c2C(=O)OCC)nc2c1c(=O)n(C)c(=O)n2C | 1.35 nM
30 | Cc1ccc(C(C)C)c(OCCn2c(=O)oc3ccccc32)c1 | 2.6 nM
31 | CCCCOC(=O)n1c(=S)oc2cc(Cl)ccc21 | 0.85 nM
32 | O=C(Nc1ccccc1N1CCCCC1)c1ccc(F)cc1 | 1.01 nM
33 | Cc1ccc(N=Cc2cc(Cc3ccccc3Cl)cc([N+](=O)[O-])c2O)c(O)c1 | 0.6 nM
34 | NC(=O)CSc1nc(-c2ccccc2)c(-c2ccccc2)o1 | 0.94 nM
35 | Cc1cc(C)cc(OC2CCCCC2NS(=O)(=O)c2ccccc2)c1 (stereo not drawn) | 1.62 nM

Row | SMILES | PGE2 EC50 with compound
36 | COC(=O)c1ccc(-c2ccco2)n1Cc1cccc(C)c1 | 2.63 nM
37 | C=CCOc1ccccc1CNc1ccccc1C | 1.42 nM
38 | Cc1cccc(NC(=O)CSc2ncnc3c2oc2ccccc23)c1 | 2.85 nM
39 | O=C(Cc1ccc(Br)cc1)Nc1ccccc1Sc1ccccc1 | 1.2 nM
40 | Nc1ccc(Cl)cc1C(=O)c1ccccc1Cl | 1.16 nM
41 | COc1ccc(C(=O)c2cnc3ccccc3c2-c2ccccc2)cc1 | 0.59 nM
42 | O=C(CSc1nc2ccccc2o1)Nc1cc(C(F)(F)F)ccc1N1CCOCC1 | 0.77 nM
43 | O=C(Nc1ccccc1N1CCCC1)c1cc2ccccc2o1 | 1.46 nM
44 | Cc1cccc(OCCCC(=O)N2CCCc3ccccc32)c1C | 0.71 nM
45 | Cc1ccsc1-c1n[nH]c(=S)n1C1CCCCC1 | 1.2 nM
46 | C=CCc1cccc(C=Nc2cc(Br)ccc2O)c1O | 0.89 nM
47 | CN(C)c1ncc(S(=O)(=O)c2ccc(Cl)cc2)c(-c2ccccc2)n1 | 1.08 nM
48 | O=C(CSc1nnc(COc2ccccc2)n1-c1ccccc1)c1ccccc1 | 1.19 nM
49 | O=C(Cc1ccccc1)Nc1ccccc1N1CCN(c2ccccc2)CC1 | 0.95 nM
50 | CC1=C[N+](=O)c2ccccc2[N+]1=O | 0.94 nM
51 | Cc1cc2cc3c(cc2nc1SCC(=O)OC(C)C)OCO3 | 0.8 nM
52 | C[C@H](CCC(=O)O)[C@@H]1CC[C@@H]2[C@H]3CC[C@@H]4C[C@H](O)CC[C@@]4(C)[C@@H]3CC[C@]21C | 1.38 nM
53 | Cc1cccc2cc(CN(Cc3cccs3)C3(c4nnnn4C4CCCC4)CCCC3)c(=O)[nH]c12 | 1.08 nM
54 | O=C(O)COc1cccc(NC(=O)c2ccccc2)c1 | 2.83 nM
55 | COc1ccc(-c2nc3c(c(=O)[nH]c(=O)n3Cc3ccccc3)n2Cc2ccccc2)cc1 | 0.55 nM
56 | O=c1[nH]c(N/N=C/c2ccccc2)nc2ccccc12 | 0.74 nM
57 | Cc1cnn(-c2nc(-c3ccccc3)cc(-c3ccccc3)n2)c1 | 0.95 nM
58 | c1ccc(-c2csc3ncnc(N4CCc5ccccc5C4)c23)cc1 | 1.1 nM
59 | COc1ccc(-c2nc(NC(C)=O)sc2-c2ccccc2)cc1 | 1.01 nM
60 | COc1ccc(Cn2c(-c3ccc(OC)cc3)nc3ccccc32)cc1 | 1 nM
61 | Cc1ccc(-c2nn3c(C)nnc3s2)cc1NCc1c(F)cccc1Cl | 0.91 nM
62 | CC1CCCCN1C(=O)/C(=C\c1ccccc1)c1ccccc1 (stereo not drawn) | 2.61 nM

Row | SMILES | PGE2 EC50 with compound
63 | CCCCc1ccc(-n2c(Cc3cccs3)n[nH]c2=S)cc1 | 0.8 nM
64 | CCc1nc(N2CCCCC2)c2oc3ccccc3c2n1 | 0.8 nM
65 | CCn1c(COc2ccc(Cl)cc2)nnc1SCC(=O)Nc1ccc2c(c1)OCO2 | 1.09 nM
66 | CCOC(=O)c1cnc2c(c(C)nn2C)c1Oc1ccc(Cl)cc1 | 1.29 nM
67 | CCCCCn1c(CN2CCN(c3cc(Cl)ccc3C)CC2)nc2c1c(=O)[nH]c(=O)n2C | 1.25 nM
68 | CCOP(=O)(c1ccccc1)c1nc(-c2ccccc2Cl)oc1N1CCCCC1 (stereo not drawn) | 1.02 nM
69 | COc1cc(C=O)ccc1OC(=O)c1ccc(C(C)C)cc1 | 1.44 nM
70 | CC1=C/C(=C(/c2ccc(O)c(C)c2)c2ccccc2C(=O)O)C=CC1=O | 0.96 nM
71 | Cc1cccc(-n2c(=S)[nH]c3c(oc4ccccc43)c2=O)c1 | 2.78 nM
72 | CCOc1ccc(N(Cc2ccc(OC)cc2)C(=O)c2ccco2)cc1 | 1.12 nM
73 | O=C(O)COc1ccc(/C=C/c2ccc3cccc([N+](=O)[O-])c3n2)cc1 | 2.11 nM
74 | CC1=CC2C(C(C)C)CCC(C)(O)C2CC1 (stereo not drawn) | 0.68 nM
75 | Cc1cc(NC(=O)c2cc(-c3ccncc3)nc3c(C)cccc23)no1 | 1.16 nM
76 | O=C(N/N=C/c1cccc(F)c1)NC1CCCCC1 | 1.1 nM
77 | Cc1ccc(C(=O)Nc2ccccc2C(=O)NCc2ccccc2)cc1 | 1.42 nM
78 | COc1ccc(-n2c(=S)[nH]c3c(oc4ccccc43)c2=O)cc1 | 2.8 nM
79 | O=C(O)CCN1C(=O)/C(=C/c2cn(-c3ccccc3)nc2-c2cccs2)SC1=S | 0.33 nM
80 | O=c1[nH]c2ccc(Cl)cc2c(-c2ccccc2)c1N1CCN(c2ccccn2)CC1 | 1.64 nM
81 | CCCCNc1nc2c(S(=O)(=O)c3ccccc3)nnn2c2ccccc12 | 1.17 nM
82 | CC(C)Sc1nc2sc3c(c2c2nnc(SCC(=O)NCc4ccco4)n12)CCCC3 | 0.93 nM
83 | Cc1cc(C)c2c(n1)sc1c(=O)n(Cc3ccccc3Cl)nnc12 | 0.92 nM
84 | COc1ccccc1/C=C(/C(=O)OCC(=O)Nc1ccccc1C(C)C)c1ccccc1 | 1.1 nM
85 | Cc1noc(C)c1CSc1nc2sc3c(c2c(=O)n1C)CCCC3 | 1.46 nM
86 | CCc1ccccc1NC(=S)N(Cc1ccco1)C(C)c1cccs1 (stereo not drawn) | 0.9 nM
87 | O=C(O)[C@@H]1[C@H](C(=O)O)[C@@H](C(=O)O)C[C@H]1C(=O)O | 0.91 nM
88 | Cc1ccc(-n2c(=S)[nH]c3c(oc4ccccc43)c2=O)cc1C | 1.76 nM
89 | CCOC(=O)c1c(-c2ccc(C)cc2)csc1NC(=O)CCN1CCOCC1 | 1.21 nM

Row | SMILES | PGE2 EC50 with compound
90 | Cc1nn2c(N3CCCC3)cc(C(C)C)nc2c1-c1ccccc1 | 0.84 nM
91 | CCOC(=O)c1cnc(SC)nc1Sc1ccccc1Cl | 1.07 nM
92 | COc1ccccc1-c1nnc(SCC(=O)c2ccc(C3CCCCC3)cc2)n1Cc1ccco1 | 0.71 nM
93 | O=C(NCc1ccco1)c1ccc(=O)[nH]n1 | 1.06 nM
94 | O=C(Nc1cccc2cccnc12)c1ccc(Br)o1 | 1.22 nM
95 | CN(/N=C/C=C/c1ccccc1)C1=NS(=O)(=O)c2ccccc21 | 0.68 nM
96 | CCC1Oc2ccc(C)cc2N(Cc2cccc(C)c2)C1=O (stereo not drawn) | 1.24 nM
97 | Cc1cc(C)nc(SCc2nnc(SCC#N)n2-c2cccc(Cl)c2)n1 | 2.76 nM
98 | NC(=O)c1sc2nc(N3CCCCC3)c3c(c2c1N)CCCC3 | 2.62 nM
99 | CCc1c(-c2n[nH]c(=S)n2Cc2ccccc2)csc1C | 1.22 nM
100 | CN1CCCN(C(=O)Cc2c(Cl)cccc2Cl)c2nc3ccccc3nc21 | 0.9 nM
101 | O=c1c(O)c(-c2ccccc2)oc2ccc3occc3c12 | 0.74 nM
102 | CCOC(=O)CCN(Cc1sccc1C)S(=O)(=O)c1ccc(F)cc1 | 1.15 nM
103 | C=C1CCC2C(CC2(C)C)C(=C)CC/C1=N/O (stereo not drawn) | 1.61 nM
104 | CCOC(=O)c1cc2sc(C)cc2n1C(C)C(=O)OCC (stereo not drawn) | 0.84 nM
105 | CCCOc1ccc(/C=N/Nc2ccc(C(=O)O)cc2)c(OCCC)c1 | 0.87 nM
106 | Cc1ccc2oc(=O)n(Cc3ccccc3OC(C)C)c2c1 | 0.64 nM
107 | CCCCN1C(=O)/C(=C2\SC(N3CCCCC3)=NC2=O)c2ccccc21 | 1.26 nM
108 | O=C(Nc1ccccc1Oc1ccccc1)c1ccccc1F | 1.07 nM
109 | Cc1c(NC(=S)NC(=O)c2ccc(-c3ccc(Cl)cc3)o2)cccc1C(=O)O | 0.25 nM
110 | O=C(Nc1ccc2c(c1)OCO2)c1cccc2c1C(=O)N(C1CCCCC1)C2 | 0.8 nM
111 | CCCCNCC(=O)Nc1sc(C)c(C)c1C(=O)OCC | 2.33 nM
112 | Cc1ccc(-c2nnn(CC(=O)N(Cc3cccs3)C(C(=O)NC3CCCC3)c3ccncc3)n2)cc1 (stereo not drawn) | 0.72 nM
113 | CCOC(=O)c1[nH]c2ccc(OC)cc2c1NS(=O)(=O)c1ccc(Cl)s1 | 2.87 nM
